The text below walks through data of article PMC4995024, “Ligand Binding at the α4-α4 Agonist-Binding Site of the α4β2 nAChR Triggers Receptor Activation through a Pre-Activated Conformational State” (PLoS ONE, 2016).

Molecules are shown by their SMILES. Values joined by “and” are separate entries in the source; they are usually repeats but may differ in a detail not shown here. Equal entries are not always repeated. “Also recorded” adds a separate entry of the source. Where two headings read alike, the source gives them in different places. Marks after values point to notes of the source that are not given here.

Test [1] deals with T1, 3α4:2β2 nAChR (Homo sapiens, UniProt P17787+P43681). Nature of the test: Two-electrode voltage-clamp electrophysiology in Xenopus oocytes, WT 3α4:2β2 receptor. The format is cell-based. The arrangement: expressed in transfected cells; host or cells: Xenopus laevis oocytes injected with cRNA (α4:β2 ratio 4:1). Particulars: for Est Pomax: normalized to 1 mM ACh + NS206 (10 μM); for Decrease of EC50 value by co-application of NS9283 / Increase of maximum response by co-application of NS9283: 3α4:2β2, NS9283 10 μM; for Agonist type: 3α4:2β2, relative to saturating ACh (1 mM). The protocol: (§1) cDNA encoding human nAChR α4 and β2 subunits were cloned, and cRNA was prepared as previously described. A triple-point-mutated β2^m subunit with the mutations V136H, F144Q, and L146T was constructed as previously described.
(§2) This study was carried out in strict accordance with the Australian Code of Practice for the Care and Use of Animals for Scientific Purposes. The protocol for this specific study was approved by the Animal Ethics Committee of the University of Sydney (Protocol number: 2013/5915). All surgical procedures were carried out in under anesthesia induced by immersion in a tricaine solution to ameliorate suffering. […] Mature female Xenopus laevis frogs were anaesthetised with 0.17% tricaine (buffered with 0.06% sodium bicarbonate) for 15 minutes, after which the loss of righting reflex was confirmed before transferring on to ice where surgeries were performed. A small (1–2 cm) abdominal incision was made through both the skin and muscle layer with surgical knives. Ovary lobes were removed with a pair of forceps, and kept in oocyte releasing 2 (OR2) buffer (82.5 mM NaCl, 2 mM KCl, 1 mM MgCl2, 5 mM HEPES hemisodium; pH 7.4). The skin and muscle layer were sutured separately, and frogs were allowed to recover for six months before they were reselected for surgeries. A total of five recoverable surgeries with 6–12 months recovery periods between surgeries were performed on each frog to reduce the adverse effects of Xenopus transportation into Australia, as approved by the Animal Ethics Committee of the University of Sydney (Protocol number: 2013/5915) before a terminal surgery was performed, in which a lethal dose of tricaine (0.5%) was used. Briefly, lobes from ovaries of female adult X. laevis were removed and defolliculated to obtain isolated oocytes. Oocytes were injected with a total of ∼25 ng of cRNA encoding human WT receptor as shown earlier to express 3α4:2β2 and 2α4:3β2 [17], and incubated for 2–5 days at 15–18°C.
(§3) Oocytes were subjected to two-electrode voltage-clamp electrophysiological testing using a custom-built system where solutions were applied directly to the oocytes via a glass capillary tube placed in the vicinity of the cell. This ensured a solution exchange rate faster than two seconds. Ligand was applied for 30 sec and peak current amplitudes were measured. To minimise the effects of long desensitized states, the number of applications of ligand at each oocyte was minimized rather than performing full concentration-response curves on individual oocytes.
(§4) Concentration–response curves for Sazetidine-A and TC-2559 were fitted using GraphPad Prism 6 to a monophasic Hill equation with Hill Slope of 1: I=Imax(1/1+(EC50/A)) Where Imax is the maximum current, EC50 is the concentration that produces the half-maximal response and [A] is the concentration of ligand.
Concentration–response curves for ACh were fitted using GraphPad Prism 6 to a biphasic Hill equation with Hill slopes of 1: I=Imax*((Frac1/1+(EC50(1)/[A]))+(Frac2/1+(EC50(2)/[A]))) Where Frac1 and Frac2 are the fractions and EC50(1) and EC50(2) are the half-maximal concentrations of high and low-sensitivity phases of the concentration-response curves, respectively.
Ideally, single-channel recordings would be used to estimate the Po,max values; however this is technically highly challenging for α4β2 nAChRs due to channel rundown and desensitization. To overcome this, an alternate method utilizing co-application of ACh and NS206, a positive allosteric modulator (PAM), was used to estimate the maximum open probability (Est. Po,max) at 3α4:2β2 receptors. […] We have assumed that when both the positive allosteric modulator and native ligand ACh are bound, the probability of the receptor being opened is approaching one, and was previously successfully used for other members of LGICs.

Test [2] has as its target T1, 3α4:2β2 nAChR. Set-up: expressed in transfected cells; host or cells: Xenopus laevis oocytes injected with cRNA (α4:β2 ratio 4:1); method as in PMID 16720757, PMID 21795528. The note with it: 3α4:2β2 stoichiometry; cited from earlier work.
Test [3] has as its target T1, 3α4:2β2 nAChR. The test can be described thus: Linear kinetic models (Model 1, Model 2) of 3α4:2β2 receptor activation. The note with it: for Constant multiplier C (CE / CF): from change in EC50 and Po,max when NS9283 (10 μM) applied in addition to the agonist.
From the text: To determine how binding at the α4-α4 site alters receptor transitions during activation, two simple linear kinetic models were used to describe receptor activation when two α4-β2 binding sites are occupied. For simplicity the binding of two ligands at α4-β2 sites is combined into a single step. The first model (Model 1) is a three-step model designed to determine whether the third ligand alters: (i) the binding affinity of ligands at the α4-β2 site (cooperativity); (ii) the transitions between closed and open states (gating) or (iii) the transitions between open and a distinct closed state in the presence of ligand (desensitization). The second model (Model 2) expanded the gating transitions to investigate whether a pre-activation (flipping) step is altered. We then determined which equilibrium constant was principally modulated in these models when NS9283 bound to the α4-α4 site potentiated the Saz-A or TC-2559 responses.
The open probability for the first model is given by (Fig 4A): PoCtrl=E.[A]/K+[A](1+E+E.D) (1) Where E is the gating constant, [A] is the agonist concentration, K is the dissociation constant of Saz-A or TC-2559, and D is the desensitizing constant. By rearranging Eq 1 to isolate [A]: PoCtrl=E/1+E+E.D/1+K/[A].(1+E+E.D) (2)
The open probability curve will fit to a Hill equation with a slope coefficient of one, since the ligand binding steps have been simplified by aggregating into a single transition. It follows from Eq 2 that the maximum open probability (when [A] approaches infinity) is given by: Po,maxCtrl=E/1+E+E.D (3) and the half-maximum effective concentration is: EC50Ctrl=K/1+E+E.D (4) It is apparent from Eq 3 that to determine the equilibrium constants for this kinetic model, the open probability (Po) of the receptor must be estimated by normalizing to the responses to ACh and NS206, rather than normalizing to the response of a saturating concentration of ACh.
The open probability in the presence of NS9283 ( Po.maxNS ; the superscript denotes when NS9283 is co-applied) and half-maximum effective concentration ( EC50NS ) can be described by substituting E with CE.E in Eqs 3 and 4 respectively. The value of CE can then be calculated from the ratios of the EC50 values and the maximum open probabilities in control and when potentiated by NS9283, as follows: EC50ctrl/Po,maxctrl=K/E (5) EC50NS/Po,maxNS=K/CE.E (6) CE=Po,maxNS/Po,maxctrl×EC50ctrl/EC50NS (7)
As NS9283 binds selectively to the α4-α4 site, we assumed that it has the same multiplier effect; regardless of which partial agonist is bound at the α4-β2 site. […] Equilibrium constants were then calculated using the following equations. Rearranging Eq 3: 1/Po.maxCtrl−1=1+D.E/E (8)
Rearranging to give D. D=CE(1/Po,maxNS−1)−(1/Po,maxctrl−1)/CE−1 (11)
Rearranging Eq 3 to give E. E=Po,maxctrl/(1−Po,maxctrl−D.Po,maxctrl) (12)
Rearranging Eqs 5 and 6 to give K K=E.EC50ctrl/Po,maxctrl=CE.E.EC50NS/Po,maxNS (13)
The open probability for this model is given by the following: Po=E.F.[A]/K+[A](1+F+E.F) (17)
Where K is the dissociation constant, F is the pre-activating equilibrium constant and E is the gating constant. It also follows that the maximum open probability is given by: Po,max=E.F/1+F+E.F (18)
Thus, both F and E will have an influence on the observed macroscopic efficacy. The half-maximum effective concentration is: EC50=K/1+F+E.F (19)
We investigated the possibility that NS9283 increases the pre-activation constant, F, by a factor, CF, in Model 2 (Fig 5B; Scheme 2).
By subtracting Eq 21 from Eq 22 and re-arranging in terms of E: E=CF−1/CF(1/Po,maxNS−1)−(1/Po,maxctrl−1) (23)
The value of E can then be calculated using Eq 23.
In test [4] the target is T2, 2α4:3β2 nAChR (Homo sapiens, UniProt P17787+P43681).
T2 construct: expressed in transfected cells; host or cells: Xenopus laevis oocytes injected with cRNA (α4:β2 ratio 1:4)
The test can be described thus: Two-electrode voltage-clamp electrophysiology in Xenopus oocytes, WT 2α4:3β2 receptor. The format is cell-based. Particulars: for Agonist type: 2α4:3β2, relative to saturating ACh (1 mM). The protocol: as §1, §2, §3, §4

Test [5] relates to T3, 3α4:2β2^HQT nAChR (β2 V136H, F144Q, L146T).
T3 construct: expressed in transfected cells; host or cells: Xenopus laevis oocytes injected with cRNA
The test can be described thus: Two-electrode voltage-clamp electrophysiology in Xenopus oocytes, mutated 3α4:2β2^HQT receptor. It is filed as cell-based, human. The note with it: for I/I1mM ACh: 3α4:2β2^HQT; for Activation of 3α4:2β2^HQT mutant receptors: receptor with three α4-α4-like interfaces. The procedure: as §1, §2, §3
Nevertheless, a contribution to Saz-A and TC-2559 activation from binding at the α4-α4 interface cannot be excluded from these experiments. Therefore, Saz-A and TC-2559 were applied to mutated 3α4:2β2^HQT receptors where the α4-β2 binding site is abolished. […]

[6] abbreviates: read-out: K (binding equilibrium constant), Model-1, Model 1, 3α4:2β2.
The mark [7] stands for this setting: read-out: K (binding equilibrium constant), Model-2, Model 2, 3α4:2β2.
Where [8] appears, read: 3α4:2β2, co-applied with NS9283 (10 μM).

T1 sequence (P43681 29-627 limits assumed): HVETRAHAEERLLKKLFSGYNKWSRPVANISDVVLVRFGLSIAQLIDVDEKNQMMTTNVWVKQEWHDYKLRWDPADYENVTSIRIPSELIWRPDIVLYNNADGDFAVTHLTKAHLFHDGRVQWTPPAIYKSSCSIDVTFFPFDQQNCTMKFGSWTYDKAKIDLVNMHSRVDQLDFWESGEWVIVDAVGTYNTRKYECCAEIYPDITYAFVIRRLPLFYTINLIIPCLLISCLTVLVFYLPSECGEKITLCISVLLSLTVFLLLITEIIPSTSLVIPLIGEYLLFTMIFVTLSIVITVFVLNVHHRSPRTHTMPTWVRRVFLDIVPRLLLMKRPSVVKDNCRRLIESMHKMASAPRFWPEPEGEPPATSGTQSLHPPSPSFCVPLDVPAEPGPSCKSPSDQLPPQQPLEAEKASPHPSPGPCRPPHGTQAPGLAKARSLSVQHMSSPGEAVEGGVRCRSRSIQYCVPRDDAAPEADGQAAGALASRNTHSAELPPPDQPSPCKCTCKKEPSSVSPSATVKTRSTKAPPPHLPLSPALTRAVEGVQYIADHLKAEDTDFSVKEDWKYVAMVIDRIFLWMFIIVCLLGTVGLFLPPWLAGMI
T1 sequence (P17787 26-502): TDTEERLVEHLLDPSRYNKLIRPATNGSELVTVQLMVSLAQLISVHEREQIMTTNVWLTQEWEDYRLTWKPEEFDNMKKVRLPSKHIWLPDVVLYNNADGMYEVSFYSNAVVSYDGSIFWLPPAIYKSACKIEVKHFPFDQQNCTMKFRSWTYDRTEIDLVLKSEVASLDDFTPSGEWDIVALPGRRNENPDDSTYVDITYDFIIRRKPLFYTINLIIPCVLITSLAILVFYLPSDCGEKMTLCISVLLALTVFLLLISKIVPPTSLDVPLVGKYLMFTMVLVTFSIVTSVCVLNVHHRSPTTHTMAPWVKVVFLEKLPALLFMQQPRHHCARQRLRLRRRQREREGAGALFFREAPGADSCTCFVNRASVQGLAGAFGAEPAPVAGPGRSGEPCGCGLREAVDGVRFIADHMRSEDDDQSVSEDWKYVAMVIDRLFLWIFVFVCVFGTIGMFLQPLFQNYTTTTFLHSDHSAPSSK
T2 sequence (P43681 29-627 limits assumed): as the sequence (P43681 29-627 limits assumed) above
T2 sequence (P17787 26-502): as the sequence (P17787 26-502) above

Turning to `CC(=O)OCC[N+](C)(C)C` [ACh, acetylcholine], the “Est Pomax” value in test [1] (3α4:2β2, ligand alone) amounted to 51 ± 5%. In test [2], the “Potency of α4-α4 binding site relative to α4-β2 binding site (less potent)” value was ~ 100 fold.

Take `N#Cc1cccc(-c2nc(-c3cccnc3)no2)c1` [NS9283]: the “Constant multiplier C (CE / CF), averaged over Saz-A and TC-2559” value in test [3] (NS9283 potentiation of Saz-A and TC-2559 activation, averaged) is recorded as 8.94.

In the case of `OCCCCC#Cc1cncc(OC[C@@H]2CCN2)c1` [Saz-A, Sazetidine-A], the “I/I1mM ACh (maximum response normalized to 1 mM ACh)” value in test [4] (2α4:3β2, ligand alone) is 108 ± 6%. This compound had a half-maximal effective concentration (EC50) in test [4] (2α4:3β2, ligand alone, Hill co-efficient of one) of 10 nM. Also, the Agonist type result in test [4] is “full agonist”. Further, in test [5], the “I/I1mM ACh” value is reported as 0* % and the “Activation of 3α4:2β2^HQT mutant receptors” value is on record as “do not activate; also recorded: Neither Saz-A or TC-2559 activated”. In test [3] (Model 1, 3α4:2β2), the “D (desensitized equilibrium constant), Model-1” value stood at 0.50 and the “E (gating equilibrium constant), Model-1” value was found to be 0.10. Further, in test [3] (Model 2, 3α4:2β2), the “E (gating equilibrium constant), Model-2” value turned out to be 1.99 and the “F (flipping equilibrium constant), Model-2” value was 0.05. The “Constant multiplier C (CE / CF)” value in test [3] was 8.7 and 8.75. The Kd in test [3] (setting [6]) came out at 27 nM. In addition, the Kd in test [3] (setting [7]) was 27 nM. In addition, in test [1], the “Decrease of EC50 value by co-application of NS9283” value was found to be 2 fold, the “Increase of maximum response by co-application of NS9283” value was found to be 4.4 fold and the Agonist type result is reported as “partial agonists”. Besides, the “Est Pomax” value in test [1] (setting [8]) was 39% and 39 ± 1.5%. Further, in test [1] (3α4:2β2, ligand alone), the “I/I1mM ACh (maximum response normalized to 1 mM ACh)” value is on record as 18 ± 1.4%; the “Est Pomax” value was 9.1% and 9 ± 0.7%. For the same compound, the EC50 in test [1] (3α4:2β2, ligand alone, Hill co-efficient of one) was found to be 23 nM.

For `CCOc1cncc(/C=C/CCNC)c1` [TC-2559], the “I/I1mM ACh (maximum response normalized to 1 mM ACh)” value in test [4] (2α4:3β2, ligand alone) stood at 330 ± 10%. Also, the Agonist type entry in test [4] is “super agonist”. Further, in test [5], the “I/I1mM ACh” value is 0* % and the “Activation of 3α4:2β2^HQT mutant receptors” value is given as “do not activate; also recorded: Neither Saz-A or TC-2559 activated”. Also, in test [3] (Model 1, 3α4:2β2), the “D (desensitized equilibrium constant), Model-1” value is 0.28 and the “E (gating equilibrium constant), Model-1” value is recorded as 0.27. Besides, in test [3] (Model 2, 3α4:2β2), the “E (gating equilibrium constant), Model-2” value was 3.59 and the “F (flipping equilibrium constant), Model-2” value was determined as 0.08. In addition, the “Constant multiplier C (CE / CF)” value in test [3] is 9.2 and 9.15. In addition, the Kd in test [3] (setting [6]) turned out to be 833 nM. Also, the Kd in test [3] (setting [7]) was found to be 836 nM. For the same compound, in test [1], the “Decrease of EC50 value by co-application of NS9283” value is recorded as 3.1 fold, the “Increase of maximum response by co-application of NS9283” value worked out at 2.9 fold and the Agonist type result is given as “partial agonists”. Moreover, the “Est Pomax” value in test [1] (setting [8]) was 59% and 59 ± 1.5%. Also, in test [1] (3α4:2β2, ligand alone), the “I/I1mM ACh (maximum response normalized to 1 mM ACh)” value is on record as 41 ±4%; the “Est Pomax” value was 20% and 20 ± 2%. Moreover, the “Difference of EC50 values between 3α4:2β2 and 2α4:3β2 receptors” value in test [1] (3α4:2β2 vs 2α4:3β2) was 5 fold.
